The target of series [1] is T1, human recombinant TRPV1 (Homo sapiens (Human), UniProt Q8NER1). Briefly: TRPV1 Capsaicin-Based Assay (Protocol 2, TRPV1/CHO cells, Fluo-4, FLIPR). Type of series: cell-based. Conditions: TRPV1/CHO cells, capsaicin 100 nM final; read-out: IC50 value by the Capsaicin-Based Assay. The procedure, abridged:
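CHO cells stably expressing human TRPV1 were loaded with 3 μM Fluo-4 for 1 h, then given compounds in HBSS/1 mM CaCl2/20 mM HEPES pH 7.4 with 1% DMSO for 2 min before 100 nM capsaicin (final). FLIPR fluorescence recorded over the full course; curves fitted.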

The target of series [2] is T1, human recombinant TRPV1. Briefly: TRPV1 pH-Based Assay (Protocol 2, Ca2+ response in TRPV1/CHO cells, Fura-2). The class given is cell-based. Conditions: TRPV1/CHO cells, pH 5.0-5.1; read-out: IC50 value by the pH-Based Assay. The procedure, abridged:
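CHO cells stably expressing human TRPV1, Fura-2 loaded, given compound (1% DMSO in 10× stock) before acid challenge to final pH 5.0-5.1 (3.2 or 3.3 mM H2SO4). 340/380 nm ratio recorded at 0.5 Hz; maximal ratio after agonist addition versus 16-point baseline used as response.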

Series [3] concerns FCA-induced inflammation of the rat hind paw. Briefly: Freund's complete adjuvant (FCA) model of inflammatory pain, reversal of hyperalgesia. Type of series: in vivo. Conditions: rats. The method, then:
Test Animals: Each experiment uses rats weighing between 200-260 g at the start of the experiment. The rats are group-housed and have free access to food and water at all times, except prior to oral administration of a compound of Formula I when food is removed for 16 hours before dosing. A control group acts as a comparison to rats treated with a compound of Formula I. The control group is administered the carrier for the compound of Formula I. The volume of carrier administered to the control group is the same as the volume of carrier and compound of Formula I administered to the test group.
Inflammatory Pain: To assess the actions of the compounds of Formula I on the treatment or prevention of inflammatory pain the Freund's complete adjuvant (“FCA”) model of inflammatory pain is used. […] 24 hour post injection, the animal is assessed for response to noxious mechanical stimuli by determining the PWT, or to noxious thermal stimuli by determining the PWL, as described below. […] Responses to noxious mechanical or thermal stimuli are then determined 1, 3, 5 and 24 hours post administration. […]
Response to Mechanical Stimuli as an Assessment of Mechanical Hyperalgesia: The paw pressure assay can be used to assess mechanical hyperalgesia. For this assay, hind paw withdrawal thresholds (PWT) to a noxious mechanical stimulus are determined using an analgesymeter (Model 7200, commercially available from Ugo Basile of Italy) as described in C. […] PWT is determined once for each rat at each time point and only the affected (ipsilateral) paw is tested.
Response to Thermal Stimuli as an Assessment of Thermal Hyperalgesia: The plantar test can be used to assess thermal hyperalgesia. For this test, hind paw withdrawal latencies (PWL) to a noxious thermal stimulus are determined using a plantar test apparatus (commercially available from Ugo Basile of Italy) following the technique described by K. Hargreaves et al., “A New and Sensitive Method for Measuring Thermal Nociception in Cutaneous Hyperalgesia,” Pain 32(1):77-88 (1988). […] Three latencies are determined at each time point and averaged. […]

The nature of series [4]: Measurement of body temperature increase (rectal body temperature). The class given is in vivo, rat. Conditions: Crl/SD rats, oral, 1 mg/mL at 10 mL/kg. The protocol:
Test Animals: Selection of rats (Crl/SD rats, 7 weeks, male) for this study was based on rectal body temperature measured during the morning of the day of dosing. In addition, animals selected for this study were acclimated to both the rectal measurement procedure and to being handled and dosed to minimize spontaneous, stress-induced, increases in body temperature. The study was conducted in the animal care laboratories where the room temperature and humidity were kept. The rats were free to move and food and water during the study. Each rat was numbered with color line on the tail, housed in each cage and permitted the normal range of movement. Immediately before each body temperature was measured, they transferred to a single cage at each measurement. To reduce stress which affected the body temperature, the rats were covered with towels at the measurement. The thermistor probe was then carefully inserted into the rectum of each rat and left in place until the value on the digital display had stabilized.
Assays: On the day before dosing, rectal body temperatures were measured at 9:00, 10:00, 11:00, 12:30, 13:30, 14:30 and 15:30 to familiarize the animals with the measurement procedure prior to administration of the test or control treatments. The rats were also dosed by oral gavage without vehicle at 12:30 to acclimate and familiarized the animals with the handling and dosing procedure.
On the day of dosing, only rats whose rectal body temperatures were within the range of 37.0° C. to 37.7° C. were selected for this study. Rectal body temperatures were measured at 9:00, 10:00 and 11:00. Rats whose rectal body temperatures were over 37.9° C. at 10:00, and were outside the range of 37.0° C. to 37.7° C. at 11:00 were excluded from the study. The selected rats were divided to several groups based on their rectal body temperatures at 11:00. Rectal body temperatures of the selected rats were measured again at 12:30, and any rats whose rectal body temperature was 38.0° C. or greater were excluded from the study.
Following the group assignment, test compounds or vehicle was administrated to the rats. Each test compound was dissolved in 0.5% methylcellurose and the final concentration of the compound was adjusted to 1 mg/mL. Test compound was orally administrated in a volume 10 mL/kg once. 10 mL/kg of vehicle (0.5% methylcellurose) was administered to the vehicle group. The rectal body temperatures were measured 0.5, 1 and 2 hrs after the administration. The study was conducted in the animal care laboratories where the room temperature and humidity were kept.
Body temperature increase (ΔTb) was calculated from the difference from an average of the vehicle group at each time point.

Seven molecules from patent US8921373B2, “Compounds having TRPV1 antagonistic activity and uses thereof” (Shionogi & Co., Ltd., priority 2010, dated 2014) can be followed below.

Structures are written as SMILES.

T1 sequence (Q8NER1 whole entry): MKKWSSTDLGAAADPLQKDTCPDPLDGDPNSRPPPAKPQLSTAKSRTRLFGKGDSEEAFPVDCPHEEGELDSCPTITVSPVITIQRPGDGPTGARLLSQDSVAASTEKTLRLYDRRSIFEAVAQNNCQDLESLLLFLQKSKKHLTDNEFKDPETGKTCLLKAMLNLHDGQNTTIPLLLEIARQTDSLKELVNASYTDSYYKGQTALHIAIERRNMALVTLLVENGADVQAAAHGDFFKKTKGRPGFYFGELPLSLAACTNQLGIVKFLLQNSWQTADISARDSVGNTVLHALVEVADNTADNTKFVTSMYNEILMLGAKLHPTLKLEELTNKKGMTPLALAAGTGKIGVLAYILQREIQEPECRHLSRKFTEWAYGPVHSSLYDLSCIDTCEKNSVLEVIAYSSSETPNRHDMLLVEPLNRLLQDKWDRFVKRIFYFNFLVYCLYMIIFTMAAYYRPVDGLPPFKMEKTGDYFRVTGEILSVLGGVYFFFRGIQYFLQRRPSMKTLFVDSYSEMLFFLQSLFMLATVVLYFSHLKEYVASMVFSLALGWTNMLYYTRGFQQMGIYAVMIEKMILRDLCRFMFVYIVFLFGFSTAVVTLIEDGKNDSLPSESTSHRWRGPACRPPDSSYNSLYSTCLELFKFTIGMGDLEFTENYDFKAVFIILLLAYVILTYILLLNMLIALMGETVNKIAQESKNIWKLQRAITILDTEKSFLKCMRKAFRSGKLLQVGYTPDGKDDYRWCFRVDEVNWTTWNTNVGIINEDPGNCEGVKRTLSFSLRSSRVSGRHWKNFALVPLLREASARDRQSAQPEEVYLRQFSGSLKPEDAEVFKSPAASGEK

For `C[C@H]1CN(c2ncc(C[C@@H](O)CO)cc2C(F)(F)F)CCN1C(=O)Nc1nc2ccc(F)cc2s1` [AGU], the IC50 in series [1] and in series [2] was ≤ 50 nM throughout. The “Percentage reversal of hyperalgesia, % Reversal (3 mg/Kg, 3 hours post administration)” value in series [3] is given as 71%.
`Cc1ccc2nc(NC(=O)N3CCN(c4ncc(C[C@@H](O)CO)cc4F)C[C@@H]3C)sc2c1` [AEM]: the IC50 in series [2] is ≤ 50 nM. The “Percentage reversal of hyperalgesia, % Reversal (3 mg/Kg, 3 hours post administration)” value in series [3] came out at 59.7%.
For `O=C(Nc1nc2ccc(Cl)cc2s1)N1CCN(c2ncc(C[C@H](O)CO)cc2F)CC1` [ADE, (S)-N-(6-chlorobenzo[d]thiazol-2-yl)-4-(5-(2,3-dihydroxypropyl)-3-fluoropyridin-2-yl)piperazine-1-carboxamide], in series [4], the Body temperature increase entry is “less than 0.5 °C”. Also, the IC50 in series [1] and in series [2] was ≤ 50 nM in each case.
Take `O=C(Nc1nc2ccc(F)cc2s1)N1CCN(c2ncc(C[C@@H](O)CO)cc2Cl)CC1` [ACV, (R)-4-(3-chloro-5-(2,3-dihydroxypropyl)pyridin-2-yl)-N-(6-fluorobenzo[d]thiazol-2-yl)piperazine-1-carboxamide]: the Body temperature increase result in series [4] is “less than 0.5 °C”. The concentration for half-maximal inhibition (IC50) in series [1] and in series [2] was ≤ 50 nM each time.
Take `O=C(Nc1nc2ccc(F)cc2s1)N1CCN(c2ncc(C[C@@H](O)CO)cc2F)CC1` [ACW, (R)-4-(5-(2,3-dihydroxypropyl)-3-fluoropyridin-2-yl)-N-(6-fluorobenzo[d]-thiazol-2-yl)piperazine-1-carboxamide]: the Body temperature increase result in series [4] was “less than 0.5 °C”. Further, the IC50 in series [1] and in series [2] was ≤ 50 nM in each case.
On to `Cc1ccc2nc(NC(=O)N3CCN(c4ncc(C[C@@H](O)CO)cc4Cl)CC3)sc2c1` [ADU], for which the Body temperature increase result in series [4] is “less than 0.5 °C”. The IC50 in series [1] and in series [2] was ≤ 50 nM each time.
For `O=C(Nc1nc2ccc(Cl)cc2s1)N1CCN(c2ncc(C[C@@H](O)CO)cc2Cl)CC1` [ADT], the Body temperature increase entry in series [4] is “less than 0.5 °C”. For the same molecule, the IC50 in series [1] and in series [2] was ≤ 50 nM throughout.

A word on the IC50: it is the concentration that gives 50% inhibition.
